Measurements as given in PubChem BioAssay AID1435 (PCMD, 2008).
Active and inactive are the calls of the source. How the calls were made is not given here.

Target: DNA repair protein RAD51 homolog 1 (Homo sapiens) (UniProt Q06609)
Test: concentration-dependent blocking of RAD51 activity – biochemical, homologous recombination, fluorescence, dose response (AID 1435)
Settings: RAD51 homologous recombination biochemical assay

Chain of DNA repair protein RAD51 homolog 1 (Homo sapiens) (Q06609 whole entry, looked up): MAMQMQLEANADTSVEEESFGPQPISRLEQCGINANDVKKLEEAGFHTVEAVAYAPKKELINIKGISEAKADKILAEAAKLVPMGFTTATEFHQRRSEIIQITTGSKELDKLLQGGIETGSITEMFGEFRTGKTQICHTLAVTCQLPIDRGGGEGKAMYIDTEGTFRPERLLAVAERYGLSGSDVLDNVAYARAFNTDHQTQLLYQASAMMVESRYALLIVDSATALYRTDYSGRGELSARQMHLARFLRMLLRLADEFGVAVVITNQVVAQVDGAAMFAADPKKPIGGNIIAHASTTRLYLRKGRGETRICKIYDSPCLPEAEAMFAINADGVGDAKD

COC(=O)/C(=C\Nc1cccc(Cl)c1C)c1ncc(C(F)(F)F)cc1Cl
IC50: > 85 µM (inactive)

CCCCCOCC1CC(C/C(C)=N/Nc2nc(-c3ccccc3)cs2)C(=O)O1 (stereo not drawn)
IC50: > 85 µM (inactive)

COc1cccc2c1C(=O)c1c(O)c3c(c(O)c1C2=O)C[C@@](O)(C(=O)CO)C[C@@H]3O[C@H]1C[C@H](N)[C@@H](O)[C@H](C)O1
IC50: 1.4 µM
